Where “and” joins values, the source holds several entries; their conditions need not be identical. Identical values can stand only once. Results filed as inconclusive are left out.
System: BDF1 mice, M5076 sarcoma s.c., survival/tumor T/C
Experiment: NCI In Vivo Anticancer Drug Screen. Data for tumor model Sarcoma M5076 (subcutaneous) in B6D2F1 (BDF1) mice
Description: The antitumor activity of compounds was measured in mice bearing transplantable tumors. Survival or tumor size were measured and the results are expressed as the measurement made in the treated group (T) divided by the measurement made in the vehicle treated control group (C). The tumor model used in this assay is Sarcoma M5076 (subcutaneous) in B6D2F1 (BDF1) mice

[1] = endpoint: median survival time, dose: 50.0 mg/kg/injection, schedule: Q01DX009 (ip), vehicle: saline with Tween-80, higher = longer survival
[2] = endpoint: median survival time, dose: 100.0 mg/kg/injection, schedule: Q01DX009 (ip), vehicle: saline with Tween-80, higher = longer survival
[3] = endpoint: median survival time, dose: 200.0 mg/kg/injection, schedule: Q01DX009 (ip), vehicle: saline with Tween-80, higher = longer survival
[4] = endpoint: median tumor weight (est.), dose: 100.0 mg/kg/injection, schedule: Q01DX009 (ip), vehicle: saline with Tween-80, higher = larger tumour
[5] = endpoint: median tumor weight (est.), dose: 50.0 mg/kg/injection, schedule: Q01DX009 (ip), vehicle: saline with Tween-80, higher = larger tumour
[6] = endpoint: median tumor weight (est.), dose: 200.0 mg/kg/injection, schedule: Q01DX009 (ip), vehicle: saline with Tween-80, higher = larger tumour

CC(C)[C@](O)(C(=O)OCC1=CC[N+]2([O-])CC[C@@H](O)[C@@H]12)[C@H](C)O (some centres undefined)
T/C (endpoint: mean tumor weight, dose: 75.0 mg/kg/injection, schedule: Q02DX011 (ip), vehicle: saline, higher = larger tumour): 96 % of control
T/C (endpoint: mean tumor weight, dose: 100.0 mg/kg/injection, schedule: Q02DX011 (ip), vehicle: saline, higher = larger tumour): 53 % of control
T/C (endpoint: mean tumor weight, dose: 150.0 mg/kg/injection, schedule: Q02DX011 (ip), vehicle: saline, higher = larger tumour): 82 % of control
T/C (endpoint: mean tumor weight, dose: 200.0 mg/kg/injection, schedule: Q02DX011 (ip), vehicle: saline, higher = larger tumour): 37 % of control
T/C (endpoint: mean tumor weight, dose: 300.0 mg/kg/injection, schedule: Q02DX011 (ip), vehicle: saline, higher = larger tumour): 6 % of control
T/C (endpoint: mean tumor weight, dose: 400.0 mg/kg/injection, schedule: Q02DX011 (ip), vehicle: saline, higher = larger tumour): 13 % of control
T/C (endpoint: median survival time, dose: 200.0 mg/kg/injection, schedule: Q01DX007 (ip), vehicle: saline, higher = longer survival): 95 % of control
T/C (endpoint: median survival time, dose: 400.0 mg/kg/injection, schedule: Q01DX007 (ip), vehicle: saline, higher = longer survival): 117 % of control
T/C (endpoint: median survival time, dose: 540.0 mg/kg/injection, schedule: Q04DX003 (ip), vehicle: saline, higher = longer survival): 104 % of control
T/C (endpoint: median survival time, dose: 800.0 mg/kg/injection, schedule: Q01DX007 (ip), vehicle: saline, higher = longer survival): 110 % of control
T/C (endpoint: median survival time, dose: 800.0 mg/kg/injection, schedule: Q04DX003 (ip), vehicle: saline, higher = longer survival): 112 % of control
T/C (endpoint: median survival time, dose: 1200.0 mg/kg/injection, schedule: Q04DX003 (ip), vehicle: saline, higher = longer survival): 114 % of control
T/C (endpoint: median tumor weight (est.), dose: 75.0 mg/kg/injection, schedule: Q02DX011 (ip), vehicle: saline, higher = larger tumour): 89 % of control
T/C (endpoint: median tumor weight (est.), dose: 100.0 mg/kg/injection, schedule: Q02DX011 (ip), vehicle: saline, higher = larger tumour): 56 % of control
T/C (endpoint: median tumor weight (est.), dose: 150.0 mg/kg/injection, schedule: Q02DX011 (ip), vehicle: saline, higher = larger tumour): 82 % of control
T/C (endpoint: median tumor weight (est.), dose: 200.0 mg/kg/injection, schedule: Q02DX011 (ip), vehicle: saline, higher = larger tumour): 39 % of control
T/C (endpoint: median tumor weight (est.), dose: 300.0 mg/kg/injection, schedule: Q02DX011 (ip), vehicle: saline, higher = larger tumour): 3 % of control
T/C (endpoint: median tumor weight (est.), dose: 400.0 mg/kg/injection, schedule: Q02DX011 (ip), vehicle: saline, higher = larger tumour): 14 % of control

CCCCCCCCCCCCCCCc1ccc(O)cc1O
T/C (endpoint: median survival time, dose: 25.0 mg/kg/injection, schedule: Q02DX030 (ip), vehicle: saline with Tween-80, higher = longer survival): 119 % of control
T/C (endpoint: median survival time, dose: 50.0 mg/kg/injection, schedule: Q02DX030 (ip), vehicle: saline with Tween-80, higher = longer survival): 111 % of control

COC(=O)c1csc(C2OC(CO)C(O)C2O)n1 (centres undefined)
T/C (endpoint: median survival time, dose: 50.0 mg/kg/injection, schedule: Q01DX009 (ip), vehicle: saline, higher = longer survival): 98 % of control
T/C (endpoint: median survival time, dose: 100.0 mg/kg/injection, schedule: Q01DX009 (ip), vehicle: saline, higher = longer survival): 100 % of control
T/C (endpoint: median survival time, dose: 200.0 mg/kg/injection, schedule: Q01DX009 (ip), vehicle: saline, higher = longer survival): 100 % of control
T/C (endpoint: median tumor weight (est.), dose: 50.0 mg/kg/injection, schedule: Q01DX009 (ip), vehicle: saline, higher = larger tumour): 61 % of control
T/C (endpoint: median tumor weight (est.), dose: 100.0 mg/kg/injection, schedule: Q01DX009 (ip), vehicle: saline, higher = larger tumour): 77 % of control
T/C (endpoint: median tumor weight (est.), dose: 200.0 mg/kg/injection, schedule: Q01DX009 (ip), vehicle: saline, higher = larger tumour): 85 % of control

COC(=O)C(Cc1ccccc1)NS(=O)(=O)c1ccc(C)cc1 (centres undefined)
T/C [1]: 98 % of control
T/C [2]: 106 % of control
T/C [3]: 97 % of control
T/C [4]: 118 % of control

CCCCN1C(=O)/C(=C/c2ccccc2OC)SC1=S
T/C [1]: 103 % of control
T/C [2]: 107 % of control
T/C [3]: 93 % of control
T/C [5]: 98 % of control
T/C [4]: 97 % of control
T/C [6]: 107 % of control

O=C(O)c1ccc(C(=O)O)c(C(=O)O)c1.[NH-]C1CCCCC1[NH-].[Pt+2]
T/C (endpoint: median survival time, dose: 0.8 mg/kg/injection, schedule: Q01DX009 (ip), vehicle: sodium bicarbonate, higher = longer survival): 101 % of control
T/C (endpoint: median survival time, dose: 1.5 mg/kg/injection, schedule: Q01DX009 (ip), vehicle: sodium bicarbonate, higher = longer survival): 104 % of control
T/C (endpoint: median survival time, dose: 3.0 mg/kg/injection, schedule: Q01DX009 (ip), vehicle: sodium bicarbonate, higher = longer survival): 108 % of control
T/C (endpoint: median survival time, dose: 6.0 mg/kg/injection, schedule: Q01DX009 (ip), vehicle: sodium bicarbonate, higher = longer survival): 112 % of control
T/C (endpoint: median survival time, dose: 8.64 mg/kg/injection, schedule: Q04DX005 (ip), vehicle: sodium bicarbonate, higher = longer survival): 176 % of control
T/C (endpoint: median survival time, dose: 14.4 mg/kg/injection, schedule: Q04DX005 (ip), vehicle: sodium bicarbonate, higher = longer survival): 216 % of control
T/C (endpoint: median tumor weight (est.), dose: 3.11 mg/kg/injection, schedule: Q04DX005 (ip), vehicle: sodium bicarbonate, higher = larger tumour): 14 % of control
T/C (endpoint: median tumor weight (est.), dose: 5.18 mg/kg/injection, schedule: Q04DX005 (ip), vehicle: sodium bicarbonate, higher = larger tumour): 18 % of control

C1CN(P2(N3CC3)=NP(N3CC3)(N3CC3)=NP(N3CC3)(N3CC3)=N2)CCO1 (centres undefined)
T/C (endpoint: median survival time, dose: 6.25 mg/kg/injection, schedule: Q02DX011 (ip), vehicle: saline, higher = longer survival): 99 % of control
T/C (endpoint: median survival time, dose: 12.5 mg/kg/injection, schedule: Q02DX011 (ip), vehicle: saline, higher = longer survival): 105 % of control
T/C (endpoint: median survival time, dose: 25.0 mg/kg/injection, schedule: Q02DX011 (ip), vehicle: saline, higher = longer survival): 122 % of control
T/C (endpoint: median survival time, dose: 50.0 mg/kg/injection, schedule: Q02DX011 (ip), vehicle: saline, higher = longer survival): 89 % of control

N[C@@H](Cc1ccc(N(CCCl)CCCl)cc1)C(=O)O
T/C (endpoint: median survival time, dose: 0.75 mg/kg/injection, schedule: Q04DX006 (ip), vehicle: saline, higher = longer survival): 105 % of control
T/C (endpoint: median survival time, dose: 1.5 mg/kg/injection, schedule: Q04DX006 (ip), vehicle: saline, higher = longer survival): 111 % of control
T/C (endpoint: median survival time, dose: 3.0 mg/kg/injection, schedule: Q02DX033 (ip), vehicle: saline, higher = longer survival): 230 % of control
T/C (endpoint: median survival time, dose: 3.0 mg/kg/injection, schedule: Q04DX006 (ip), vehicle: saline, higher = longer survival): 121 % of control
T/C (endpoint: median survival time, dose: 3.24 mg/kg/injection, schedule: Q01DX001 (ip), vehicle: saline, higher = longer survival): 154 % of control and 155 % of control

CC(=O)O[C@]1(C(C)=O)CC[C@H]2[C@@H]3C[C@H](C)C4=CC(=O)CC[C@]4(C)[C@H]3CC[C@@]21C
T/C (endpoint: mean tumor weight, dose: 100.0 mg/kg/injection, schedule: Q02DX011 (ip), vehicle: Klucel (hydroxypropylcellulose) (HPC), higher = larger tumour): 44 % of control
T/C (endpoint: mean tumor weight, dose: 200.0 mg/kg/injection, schedule: Q02DX011 (ip), vehicle: Klucel (hydroxypropylcellulose) (HPC), higher = larger tumour): 122 % of control
T/C (endpoint: mean tumor weight, dose: 400.0 mg/kg/injection, schedule: Q02DX011 (ip), vehicle: Klucel (hydroxypropylcellulose) (HPC), higher = larger tumour): 74 % of control
T/C (endpoint: median tumor weight (est.), dose: 100.0 mg/kg/injection, schedule: Q02DX011 (ip), vehicle: Klucel (hydroxypropylcellulose) (HPC), higher = larger tumour): 49 % of control
T/C (endpoint: median tumor weight (est.), dose: 200.0 mg/kg/injection, schedule: Q02DX011 (ip), vehicle: Klucel (hydroxypropylcellulose) (HPC), higher = larger tumour): 86 % of control
T/C (endpoint: median tumor weight (est.), dose: 400.0 mg/kg/injection, schedule: Q02DX011 (ip), vehicle: Klucel (hydroxypropylcellulose) (HPC), higher = larger tumour): 59 % of control

O=[N+]([O-])c1ccc(CSc2ncnc3c2ncn3C2OC(COP(=O)(O)O)C(O)C2O)cc1 (centres undefined)
T/C (endpoint: median survival time, dose: 64.8 mg/kg/injection, schedule: Q01DX005 (ip), vehicle: saline, higher = longer survival): 115 % of control and 118 % of control

Nc1nnc[se]1
T/C (endpoint: median survival time, dose: 50.0 mg/kg/injection, schedule: Q04DX003 (ip), vehicle: saline with Tween-80, higher = longer survival): 121 % of control
T/C (endpoint: median survival time, dose: 100.0 mg/kg/injection, schedule: Q04DX003 (ip), vehicle: saline with Tween-80, higher = longer survival): 116 % of control
T/C (endpoint: median survival time, dose: 200.0 mg/kg/injection, schedule: Q04DX003 (ip), vehicle: saline with Tween-80, higher = longer survival): 124 % of control

c1cnc2c(OCCOCCOCCOCCOc3cccc4cccnc34)cccc2c1
T/C [1]: 98 % of control
T/C [2]: 122 % of control
T/C [3]: 121 % of control
T/C [5]: 73 % of control
T/C [4]: 58 % of control
T/C [6]: 49 % of control

COC1CC23OC2(C1)C1C=CC3N(C(=O)OCC(Cl)(Cl)Cl)N1C(=O)OCC(Cl)(Cl)Cl (centres undefined)
T/C [1]: 100 % of control and 94 % of control
T/C [2]: 102 % of control and 89 % of control
T/C [3]: 98 % of control and 110 % of control
T/C [5]: 111 % of control and 93 % of control
T/C [4]: 66 % of control and 77 % of control
T/C [6]: 90 % of control

COc1cc2c[n+](C)c3c4cc5c(cc4ccc3c2cc1OC)OCO5
T/C (endpoint: mean tumor weight, dose: 10.0 mg/kg/injection, schedule: Q02DX011 (ip), vehicle: Klucel (hydroxypropylcellulose) (HPC), higher = larger tumour): 73 % of control
T/C (endpoint: median tumor weight (est.), dose: 10.0 mg/kg/injection, schedule: Q02DX011 (ip), vehicle: Klucel (hydroxypropylcellulose) (HPC), higher = larger tumour): 91 % of control
T/C (endpoint: median tumor weight (est.), dose: 20.0 mg/kg/injection, schedule: Q02DX011 (ip), vehicle: Klucel (hydroxypropylcellulose) (HPC), higher = larger tumour): 56 % of control

CCCCOc1ccc(-n2c(=O)[nH]c3ccccc3c2=O)cc1
T/C [1]: 101 % of control
T/C [2]: 94 % of control
T/C [3]: 101 % of control
T/C [5]: 97 % of control
T/C [4]: 100 % of control
T/C [6]: 105 % of control
